Key:
Assay type in all cases: in vivo, SD rats
[1] = test system: animal model of cerebral hemorrhage; assay: Hematoma volume in brain sections, collagenase-induced intracerebral hemorrhage (Example 1); details: 2 mg/mL solution of SMTP-7 injected into the brain at 0.2 µL/min over 10 minutes, 24 hours after collagenase injection; brain sections on day 7; FIG. 1A-1C, FIG. 2
Method: (§1) Eight to 10 week old male SD rats (250 to 300 g body weight) were kept under a 12-hour light/dark cycle and a temperature of 22°C ± 1°C. The rats were raised in plastic cages and given free access to water and feed. The number of rats used in each experiment was n = 4 unless otherwise indicated. Moreover, a component other than those listed in the injection solution was physiological saline.
(§2) The rats were anesthetized with isoflurane (1.5% isoflurane + 66% NO + 33% O2) and then injected with collagenase from clostridium histolyticum (type IV, made by Sigma-Aldrich) at a concentration of 0.25 U/µL at a position 3 mm lateral from the center of the brain, at bregma level in the anteroposterior direction and 5 mm behind the stria vascularis using a syringe to inject for 5 minutes at a rate of 0.2 µL/min, then the syringe needle was held at that position for 10 minutes, and then slowly withdrawn over another 10 minutes (0.5 mm per minute). Note that care was taken to prevent backflow during injection. In the following description, the day of this collagenase injection is referred to as day 0. This collagenase injection causes an intracerebral hemorrhage and the formation of a hematoma. […]
Moreover, the ratio of volume of hematoma to the volume of the entire brain was also measured using Imaged. […]

[2] = test system: animal model of cerebral hemorrhage; assay: Evans blue staining of brain sections, collagenase-induced intracerebral hemorrhage (Example 2); details: SMTP-7 test solution as in example 1; 2% Evans blue into tail vein 1 hour before sacrifice, day 7; FIG. 3A-3D, 4, 5
Method: as §1
as §2, with “minute).” for “minute). Note that care was taken to prevent backflow during injection. In the following description, the day of this collagenase injection is referred to as day 0. This collagenase injection causes an intracerebral hemorrhage and the formation of a hematoma.”
The same experiment as in example 1 was performed again. […] Micrographs of whole brains and 3 mm thick sections are illustrated in FIG. 3A to FIG. 3D, and the total area (mm^2) of Evans blue-stained region and staining density determined from the sections using Imaged are shown in FIG. 4 and FIG. 5. […] In FIG. 5, the vertical axis represents the concentration value of Evans blue expressed as absorbance at a wavelength of 620 nm.

[3] = test system: animal model of cerebral hemorrhage; assay: Barnes maze test, collagenase-induced intracerebral hemorrhage (Example 4); details: SMTP-7 test solution as in example 1; day 7 to day 10 after collagenase injection; FIG. 11-15
Method: as §1
as §2, with “0.” for “0. This collagenase injection causes an intracerebral hemorrhage and the formation of a hematoma.”
Collagenase injection and test solution injection were performed as in example 1, and a Barnes maze test (Barnes maze test) was performed on day 7 after collagenase injection. […] The time it took to reach the escape box and the number of holes where the rats incorrectly stayed at were evaluated. […]

[4] = test system: cleaved caspase-3 (Asp175); assay: Antibody staining of brain sections for cleaved caspase-3 (Example 8); details: SMTP-7 test solution as in example 1, cerebral cortex, day 7, FIG. 22-24
Method: as §1, §2

[5] = test system: animal model of cerebral hemorrhage; assay: Luxol fast blue and Cresyl violet double staining, myelin density in white matter (Example 7); details: SMTP-7 test solution as in example 1; ipsilateral, contralateral and central sites; day 7; FIG. 19-21
Method: as §1, §2

GFAP = assay: Antibody staining of brain sections with anti-GFAP antibodies (Example 9); details: SMTP-7 test solution as in example 1; day 7; FIG. 25-27
Method: as §1, §2

[6] = test system: animal model of cerebral hemorrhage; assay: Hematoxylin-eosin (HE) staining of brain sections, hematoma area (Example 6); details: SMTP-7 test solution as in example 1; sections on day 7 after collagenase injection; FIG. 17-18
Method: as §1, §2

Iba-1 = assay: Antibody staining of brain sections with anti-Iba-1 antibodies (Example 10); details: SMTP-7 test solution as in example 1; day 7; FIG. 28-30
Method: as §1, §2

[7] = test system: animal model of cerebral hemorrhage; assay: Small animal MRI (T2-weighted) of hematoma and edema, collagenase-induced intracerebral hemorrhage (Example 3); details: SMTP-7 test solution as in example 1
Method: as §1
as §2, with “0.” for “0. This collagenase injection causes an intracerebral hemorrhage and the formation of a hematoma.”
Collagenase injection and test solution injection were performed as in example 1, and rat brains were measured by small animal MRI on days 1 and 7 after collagenase injection (PharmaScan made by Bruker BioSpin). […] The volume of hematomas was measured based on these MRI measurements using Imaged. […]

[8] = test system: animal model of cerebral hemorrhage; assay: LAN cable walking test of motor function, collagenase-induced intracerebral hemorrhage (Example 5); details: SMTP-7 test solution as in example 1; observed for 60 seconds on LAN cable; FIG. 16
Method: as §1, §2
Collagenase injection and test solution injection were performed as in example 1, and the motor function of rats was evaluated by having the rats walk on a local area network (LAN) cable. […]

CC(C)=CCC/C(C)=C/CC[C@]1(C)Oc2c(c(O)cc3c2CN(CCC[C@@H](C(=O)O)N2Cc4c(cc(O)c5c4O[C@@](C)(CC/C=C(\C)CCC=C(C)C)[C@@H](O)C5)C2=O)C3=O)C[C@@H]1O [SMTP-7]
ratio of volume of hematoma to the volume of the entire brain [1]: marked reduction in hematoma
hematoma: total area of Evans blue-stained region and staining density [2]: marked reduction in hematoma
learning ability: time required to reach the escape box and number of incorrect holes [3]: marked improvement in learning ability
number of cells expressing caspase-3 (immunopositive cells per 100 µm^2 of ROI), contralateral ([4]; contralateral to collagenase injection): markedly reduced
number of cells expressing caspase-3 (immunopositive cells per 100 µm^2 of ROI), ipsilateral ([4]; ipsilateral to collagenase injection): markedly reduced
white matter lesions (demyelination): myelin density in white matter [5]: marked suppression of hematoma lesions
neuron damage: immunostaining using antibodies against GFAP, number of immunopositive cells (GFAP): significantly suppressed
area of the hematoma region identified by HE staining [6]: marked reduction in hematoma
inflammation: immunostaining using antibodies against Iba-1, number of immunopositive cells (Iba-1): significantly suppressed
volume ratio of hematoma in the T2-weighted MRI image ([7]; MRI on days 1 and 7 after collagenase injection, FIG. 6-8): marked reduction in both hematoma and edema
ratio of cerebral edema volume in brain volume (MRI) ([7]; day 7 after collagenase injection, FIG. 9-10): marked reduction in both hematoma and edema
motor ability: total score (0 to 10) in LAN cable walking test [8]: marked improvement in motor ability
